Measurements from patent US5714467A, “Antibacterial and antimalarial hybrid peptides” (The Rockefeller University, priority 1993, dated 1998).

Assays:
Streptococcus pneumoniae = assay: microdilution broth assay (NCCLS M7-A1), aerobes; assay type: cell-based; conditions: 11 strains
Experimental: (§1) Antimicrobial susceptibility testing was performed using a microdilution broth assay according to the guidelines of the National Committee for Clinical Laboratory Standards (NCCLS) Document M7-A1 (NCCLS. 1990).
(§2) The peptide powder as an acetate salt was weighted on an analytical balance and transferred to a polypropylene tube. A solution was prepared at a concentration of 1.024 mg/ml by dissolving the powder in autoclaved (121° C., 20 psi, 20 minutes) deionized water. The peptide solution was used immediately, stored for up to ten days at 4° C., or stored long-term at -70° C. in 1 ml aliquots in polypropylene cryovials.
(§3) Mueller-Hinton broth (MHB) (BBL catalog number 11443) was used in the microtiter plates for diluting the peptide stock solution and for diluting the bacterial inoculum. MBH 5 ml prepared tubes (BBL catalog number 95834) were used to culture an overnight plate of bacteria to the logarithmic phase of growth for inoculating the microtiter plates.
(§4) Inoculum was prepared by taking a sample of bacteria from a 16-20 hours plate culture and inoculating into 5 ml of (MHB) (BBL catalog number 95834) to an absorbance reading of approximately 0.02 at 600 nm (Ab600) on a BECKMAN® DU-64 spectrophotometer. The culture was incubated at 35°-37° C. with shaking (New Brunswick incubator shaker Model G25) and the growth monitored spectrophotometrically until it reached mid-logarithmic phase (Ab600 of approximately 0.06). This absorbance represents approximately 1×10^8 colony-forming units per milliliter (CFUs/ml). The culture was then diluted to approximately 1×10^6 CFUs/ml in autoclaved MHB (BBL catalog number 11443) to produce the inoculum. A sample of the inoculating culture was diluted in 3 mM phosphate buffer (pH 7.2) through a series of 1:10 dilutions and the 10^-4 and 10^-5 dilutions were plated, incubated overnight at 35°-37° C., and counted the next day to verify inoculum size.
(§5) Microtiter plates (Corning manufacturer number 2585096) were prepared with the use of the BECKMAN® Biomek 1000 (Beckman Instruments, Somerset, N.J.) automated laboratory workstation in combination with manual techniques. The microtiter plate was filled with diluent broth using the Biomek 1000 instrument. Peptide stock solution was manually added to the top drug well of the microtiter plate using a Rainin Pipetman Model P-200. The peptide was serially diluted in two-fold dilutions using the Biomek 1000 instrument. One hundred microliters of the standardized bacterial inoculum was added to every well of the microtiter plates (except the blanks) using an Eppendorf Repeater Model 4780 pipet equipped with an Eppendorf 5 ml combitip (catalog number 22 26 130-4).
(§6) The final concentrations of peptide solution in the wells ranged from 0.25 ug/ml to 256 ug/ml. The final concentration of bacteria in the wells was 1-5×10^5 CFUs/ml. The final volume in the wells was 200 μl.
(§7) The microtiter plates were incubated overnight (16-20 hours) at 35°-37° C. in a Precision mechanical convection oven incubator Model 30M. Plates were not stacked more than four high.

Group A Streptococcus = assay: microdilution broth assay (NCCLS M7-A1), aerobes; assay type: cell-based; conditions: 15 strains
Experimental: as §1, §2, §3, §4, §5, §6, §7

s. epidermidis = assay: microdilution broth assay (NCCLS M7-A1), aerobes; assay type: cell-based; conditions: 12 strains
Experimental: as §1, §2, §3, §4, §5, §6, §7

Xanthomonas = assay: microdilution broth assay (NCCLS M7-A1), aerobes; assay type: cell-based; conditions: 12 strains
Experimental: as §1, §2, §3, §4, §5, §6, §7

Acinetobacter = assay: microdilution broth assay (NCCLS M7-A1), aerobes; assay type: cell-based; conditions: 12 strains
Experimental: as §1, §2, §3, §4, §5, §6, §7

S. aureus = assay: microdilution broth assay (NCCLS M7-A1), aerobes; assay type: cell-based, Staphylococcus aureus; conditions: 14 strains
Experimental: as §1, §2
(§8) Mueller-Hinton broth (MHB) (BBL catalog number 11443) was used in the microtiter plates for diluting the peptide stock solution and for diluting the bacterial inoculum. […]
(§9) Inoculum was prepared by taking a sample of bacteria from a 16-20 hours plate culture and inoculating into 5 ml of (MHB) (BBL catalog number 95834) to an absorbance reading of approximately 0.02 at 600 nm (Ab600) on a BECKMAN® DU-64 spectrophotometer. The culture was incubated at 35°-37° C. with shaking (New Brunswick incubator shaker Model G25) and the growth monitored spectrophotometrically until it reached mid-logarithmic phase (Ab600 of approximately 0.06). This absorbance represents approximately 1×10^8 colony-forming units per milliliter (CFUs/ml). […]

T. rubrum ATCC 36262 = assay: microdilution broth assay, dermatophytes; assay type: cell-based; conditions: 48 hours at 30° C., M3 broth
Experimental: (§10) Antimicrobial susceptibility testing was performed using a microdilution broth assay as with the aerobes.
(§11) Antibiotic medium 3 (M3) (BBL catalog number 10932) was used in the microtiter plates for diluting the peptide stock solution and for diluting the bacterial inoculum.
(§12) The dermatophyte cultures were grown on Potato Dextrose Agar for one week. A one centimeter square of growth is teased from the leading edge of the fungus and placed in 2 ml of sterile water in a screw-capped glass tube with glass beads (2 mm) on the bottom. The tubes were vortexed for 20 seconds each and placed in a shaker incubator (New Brunswick incubator shaker Model G25) at 37° C. for 30 minutes. Tubes were removed from the shaker incubator and allowed to settle for 10 minutes. The supernatant was read on a BECKMAN® DU-64 spectrophotometer at 530 nm for percent transmission and adjusted with M3 broth to a transmission of 65%. This culture was then diluted 1:10 in M3 broth for inoculating the microtiter plates.
(§13) The microtiter plates were incubated for 48 hours at 30° C. in a PRECISION® mechanical convection oven incubator Model 4. Plates are never stacked more than four high.
(§14) Candida albicans, a yeast was used for comparison.

T. mentagrophytes = assay: microdilution broth assay, dermatophytes; assay type: cell-based; conditions: M3 broth
Experimental: as §10, §11, §12, §13, §14

E. coli ATCC 25922 = assay: anaerobic microdilution broth assay (NCCLS M11-T2), standard organism; assay type: cell-based, Escherichia coli; conditions: standard in the P. gingivalis test, anaerobic 48 hours
Experimental: (§15) Antimicrobial susceptibility testing was performed using a microdilution broth assay according to the guidelines of the National Committee for Clinical Laboratory Standards (NCCLS) Document M11-T2 (NCCLS, 1989).
(§16) One-half strength Brain Heart Infusion (BHI) (BBL catalog number 11059) supplemented with hemin and menadione is used in the microtiter plates for diluting the peptide stock solution and for diluting the bacterial inoculum.
(§17) Inoculum is prepared by culturing bacteria from an overnight plate in 5 ml of supplemented BHI. The next day the overnight broth culture is read on a BECKMAN® DU-64 spectrophotometer at 630 nm and diluted with supplemented BHI until an absorbance of 0.02 is reached which represents approximately 1×10^6 colony-forming units per milliliter (CFUs/ml). This culture is used to inoculate the microtiter plates. A sample of the inoculating culture is diluted in supplemented BHI through a series of 1:10 dilutions and the 10^-5 and 10^-6 dilutions are plated, incubated 48 hours at 35°-37° C. anaerobically, and counted to verify inoculum size.
(§18) The microtiter plates are incubated anaerobically for 48 hours at 35°-37° C. in a COY® anaerobic chamber Type A. Plates are never stacked more than four high.
E. coli ATCC 25922 was used as a standard.

Porphyromonas gingivalis = assay: anaerobic microdilution broth assay (NCCLS M11-T2), oral pathogen; assay type: cell-based
Experimental: as §15, §16, §17, §18

C. albicans ATCC 14053 = assay: microdilution broth assay, dermatophytes (yeast for comparison); assay type: cell-based, Candida albicans; conditions: 48 hours at 30° C., M3 broth
Experimental: as §10, §11, §12, §13, §14

p. aeruginosa = assay: microdilution broth assay (NCCLS M7-A1), aerobes; assay type: cell-based, Pseudomonas aeruginosa; conditions: 13 strains
Experimental: as §1, §2, §8, §9

What does the source list for “Gly-Ile-Gly-Lys-Phe-Leu-Lys-Lys-Ala-Lys-Lys-Gly-Ile-Gly-Ala-Val-Leu-Lys-Val-Leu-Thr-Thr-Gly-Leu”?
MIC RANGE, Streptococcus pneumoniae (Streptococcus pneumoniae): 8 to 16 µg/mL; MIC RANGE, Group A Streptococcus (Group A Streptococcus): 2 to 4 µg/mL; MIC RANGE, s. epidermidis (s. epidermidis): 2 to 4 µg/mL; MIC RANGE, Xanthomonas (Xanthomonas): 2 to 8 µg/mL; MIC RANGE, Acinetobacter (Acinetobacter): 2 to 4 µg/mL; MIC RANGE, S. aureus (S. aureus): 2 to 4 µg/mL; MIC, T. rubrum ATCC 36262 (T. rubrum ATCC 36262): 256 µg/mL; MIC, T. mentagrophytes ATCC 4808 (T. mentagrophytes; strain ATCC 4808, 48 hours at 30° C.): 16 µg/mL; MIC, T. mentagrophytes ATCC 18748 (T. mentagrophytes; strain ATCC 18748, 48 hours at 30° C.): 16 µg/mL; MIC, E. coli ATCC 25922 (E. coli ATCC 25922): 8 µg/mL; MIC, P. gingivalis strain 9-14K-1 (Porphyromonas gingivalis; strain 9-14K-1, anaerobic 48 hours): 16 µg/mL; MIC, P. gingivalis strain 381 (Porphyromonas gingivalis; strain 381, anaerobic 48 hours): 64 µg/mL; MIC, P. gingivalis strain 2561 (Porphyromonas gingivalis; strain 2561, anaerobic 48 hours): 16 µg/mL; MIC, P. gingivalis strain A7A1-28 (Porphyromonas gingivalis; strain A7A1-28, anaerobic 48 hours): 32 µg/mL; MIC, P. gingivalis strain ATCC 33277 (Porphyromonas gingivalis; strain ATCC 33277, anaerobic 48 hours): 64 to 128 µg/mL; MIC, P. gingivalis strain ESO-127 (Porphyromonas gingivalis; strain ESO-127, anaerobic 48 hours): 4 to 8 µg/mL; MIC, P. gingivalis strain FAY-19M-1 (Porphyromonas gingivalis; strain FAY-19M-1, anaerobic 48 hours): 16 µg/mL; MIC, P. gingivalis strain VAG-1 (Porphyromonas gingivalis; strain VAG-1, anaerobic 48 hours): 64 µg/mL; MIC, P. gingivalis strain VAG-4 (Porphyromonas gingivalis; strain VAG-4, anaerobic 48 hours): 32 µg/mL; MIC, P. gingivalis strain W-50 (Porphyromonas gingivalis; strain W-50, anaerobic 48 hours): 32 µg/mL; MIC, C. albicans ATCC 14053 (C. albicans ATCC 14053): 64 µg/mL; MIC RANGE, p. aeruginosa (p. aeruginosa): 2 to 32 µg/mL
